What was measured:
TGF-β1 activation [1] = assay: Macrophage activation assay (IC-21 macrophages, LPS, fetal fibroblast conditioned media, ELISA); assay type: cell-based, mouse
Description: Cultured macrophages were lifted from the dish with 3 ml of PBS. The PBS was balanced with 15 ml of RPMI-1640 containing 10% FBS. The cells were counted and then seeded in 100 mm plates at 1×10^6 cells/dish. When the cultured macrophages reached approximately 70% confluency (2-3 days) they were washed with PBS and RPMI-1640 medium containing 5% FBS and 10 ng/ml LPS was applied (FIG. 1). After 24 h of activation with LPS the cells were washed gently with PBS. At this point conditioned medium from confluent fetal dermal fibroblasts was collected and 5 ml was distributed into each dish containing macrophages. The cells were incubated for an additional 24 h, the media were collected, spun down at 600×g for 10 min and stored at 4° C. before TGF-β1 evaluation by ELISA. Each condition was done in duplicate. The cells, washed with PBS, were harvested for total RNA extraction.
Fetal dermal fibroblasts were seeded in 100 mm dishes at 1×10^6 cell/dish. The cells were grown to confluency (2-3 days). The cultures were washed with PBS and fresh medium, either DMEM supplemented with 10% FBS or AIM-V medium (a serum free medium) for serum-free conditions, was applied for 24 h (FIG. 1). The medium was collected and combined in order to obtain a homogenous pool of latent TGF-β1. The collection of the medium was done just prior to application in the macrophage assay.
(§1) Each measurement was performed in duplicates.

[2] = tested on: tissue Transglutaminase II mRNA; assay: mRNA for TGase II in macrophages by RT-PCR densitometry; assay type: cell-based, mouse; conditions: 1 μM hydrocortisone, densitometry of RT-PCR products, FIG. 3
Description: (§2) The cells were washed with PBS, followed by addition of the extraction buffer provided with the kit (RNeasy RNA extraction kit). The lysed cells were scraped from the dish and collected in microtubes. Samples were either frozen at −70° C. before analysis or directly assessed following manufacturer protocol. Absorbance at 260 nm and 280 nm was measured and the integrity of RNA was evaluated by denaturing formaldehyde agarose gels stained with ethidium bromide.
The procedure used to transcribe the total RNA was described in detail previously (28). […]
A portion of the first strand cDNA reaction was used in PCR, which was carried out in 25 μl containing 16 mM Tris-HCl, pH 8.3, 50 mM KCl, 1.5 mM MgCl2, 0.01% gelatin, 200 μM of each dNTPs, 1 μM each sense and antisense oligonucleotides and 2.5 units of AmpliTaq DNA polymerase. […] Sizes were determined using Q X 174 DNA/Hae III markers. […] Densitometry was used for quantitative analysis of the ethidium bromide stained gels.
In an attempt to identify the mechanism of this inhibition, the level of mRNA was evaluated for TGase II in macrophages treated with 1 μM hydrocortisone.

TGF-β1 activation [3] = assay: TGF-β1 activation by HMB-2 melanoma cells (ELISA); assay type: cell-based, human
Description: as §1
(§3) It has been shown that cancer cells, such as human breast cancer, some melanoma cell lines and prostate adenocarcinoma cell lines, constitutively release biologically active TGF-β1 into the culture medium (24, 25, 29). Since the homotypic cell culture system would be of advantage due to its simplicity, an attempt was made to implement cancer cells as a method for TGF-β1 activation.

TGF-β1 activation [4] = assay: TGF-β1 activation by prostate adenocarcinoma cells (ELISA); assay type: cell-based, human; conditions: prostate cancer cells
Description: as §1, §3

TGF-β1 mRNA = assay: mRNA for TGF-β1 in macrophages by Northern blot; assay type: cell-based, mouse; conditions: LPS alone or LPS with M6P or DCA, FIG. 2
Description: as §2
Northern blot analysis was carried out as described previously (27). Briefly, total RNA samples (5 μg) were diluted in formaldehyde-MOPS buffer and subjected to electrophoresis in a denaturing 1.2% Sea Kem GTG agarose gel along with the RNA size markers. RNA was transferred to a nitrocellulose membrane by capillary transfer. The blots were prehybridized for 3 h at 42° C. in a solution containing 10% dextran sulfate, 2×Denhardt's solution, 50% formamide, 5×SSPE (0.75 M Sodium chloride, 0.05 M sodium phosphate, 0.005 M ethylenediaminetetraacetic acid)/0.1% SDS, and 250 μg/ml of sheared salmon testis DNA. Hybridization solution was essentially the same except that ^32P dCTP-labeled DNA probe and 150 μg/ml of salmon testis DNA were included. The hybridization was carried out for 16 h at 42° C. […]

TGF-β1 activation [5] = assay: TGF-β1 activation by Bowes melanoma cells (ELISA); assay type: cell-based, human
Description: as §1, §3

TGF-β1 activation [6] = assay: BAEC treated with retinoic acid, TGF-β1 in conditioned media by ELISA; assay type: cell-based, bovine; conditions: BAEC + RA (10 μM)
Description: The procedures for preparation of conditioned media were described previously (22). Briefly, for the retinoid experiment, BAEC cells were grown to confluency in 35 mm dishes. The cultures were rinsed with PBS (Phosphate Buffered Saline), and incubated in 1 ml of serum-free DMEM containing 0.1% of BSA and retinoic acid (10 μM) or vehicle (0.5% ethanol). The incubation was carried out for 24 h. The medium was aspirated, the cells were washed with PBS and then incubated in 1 ml of DMEM/0.1% BSA for an additional 12 h to produce conditioned medium. Conditioned media were centrifuged and used in the ELISA assay for TGF-β1 evaluation.
Each measurement was performed in duplicates. […]

C[C@]12CCC(=O)C=C1CC[C@@H]1[C@@H]2[C@@H](O)C[C@@]2(C)[C@H]1CC[C@]2(O)C(=O)CO [Hydrocortisone, hydrocortisone]
active TGF-β1, % Control (STD) (TGF-β1 activation [1]; 1 μM): 64.0 (0.4) %
active TGF-β1, % Control (STD) (TGF-β1 activation [1]; 1 μM, listed as hydrocortisone): 64.0%
level of mRNA for TGase II, reduced to [2]: 37.5%

CN(C)c1cccc2c(S(=O)(=O)NCCCCCN)cccc12 [DCA, monodansylcadaverine]
% ACTIVE TGF-β1 (STD) (TGF-β1 activation [3]; HMB-2, M6P 100 μM, DCA 100 μM, antibody 1:1500 dil): 110.7%
effect on TGF-β1 activation, in words (TGF-β1 activation [3]; melanoma cells (HMB-2)): no effect
effect on TGF-β1 activation, in words (TGF-β1 activation [4]): no effect
levels of mRNA for TGF-β1, in words (TGF-β1 mRNA): remained the same
% ACTIVE TGF-β1 (STD) (TGF-β1 activation [5]; BOWES, M6P 100 μM, DCA 100 μM, antibody 1:1500 dil): 145%
effect on TGF-β1 activation, in words (TGF-β1 activation [5]; melanoma cells (Bowes)): no effect

IGF-II: Recombinant human IGF-II
effect on TGF-β1 activation, in words (TGF-β1 activation [1]): inhibited TGF-β1 activation
active TGF-β1, % Control (STD) (TGF-β1 activation [1]; IGF-II 15 nM): 65.1%
active TGF-β1, % Control (STD) (TGF-β1 activation [1]; IGF-II 30 nM): 54.3%
effect on TGF-β1 activation, in words (TGF-β1 activation [1]; IGF-II 15 and 30 nM): dose-dependent inhibitory effect

CC1=C(/C=C/C(C)=C/C=C/C(C)=C/C(=O)O)C(C)(C)CCC1 [RA, all-trans retinoic acid]
% Active (TGF-β1 activation [6]): 10.3%
Active TGF-β1 (TGF-β1 activation [6]; conditioned medium): 276 pg/mL
Total TGF-β1 (TGF-β1 activation [6]; conditioned medium): 2667 pg/mL

From US6750028B1, “Anti-fibrotic agent assay” (Ethicon, Inc, priority 1996, dated 2004)
